Laboratory results taken from US20230219963A1, “PYRROLO[2,3-D]PYRIMIDINE DERIVATIVES” (Pfizer Inc., priority 2020, published 2023).

Experiments:
[1] = target: TYK2 (Homo sapiens, UniProt P29597); assay: JAK Caliper Enzyme Assay at 1 mM ATP (TYK2); assay type: biochemical
Method: JAK Caliper Enzyme Assay at 1 mM ATP
Test article was solubilized in dimethyl sulfoxide (DMSO) to a stock concentration of 30 mM. An 11-point half log dilution series was created in DMSO with a top concentration of 600 μM. […] The compound plates were diluted 1 to 60 resulting in a top final assay compound concentration of 10 μM and a 2% DMSO concentration. Test article and assay controls were added to a 384-well plate. Reaction mixtures contained 20 mM HEPES, pH 7.4, 10 mM magnesium chloride, 0.01% bovine serum albumin (BSA), 0.0005% Tween 20, 1 mM ATP and 1 μM peptide substrate. […] The assays were initiated by the addition of 20 nM JAK1, 1 nM JAK2, 1 nM JAK3 or 1 nM TYK2 enzyme and were incubated at room temperature for three hours for JAK1, 60 minutes for JAK2, 75 minutes for JAK3 or 135 minutes for TYK2. Enzyme concentrations and incubation times were optimized for each new enzyme preps and were modified slightly over time to ensure 20%-30% phosphorylation. The assays were stopped with a final concentration of 10 mM EDTA, 0.1% Coating Reagent and 100 mM HEPES, pH=7.4. The assay plates were placed on a Caliper Life Science Lab Chip 3000 (LC3000) instrument, and each well was sampled using appropriate separation conditions to measure the unphosphorylated and phosphorylated peptide.

[2] = system: IL-21 induced pSTAT3; assay: IL-21-induced pSTAT3 in human whole blood (lymphocytes); assay type: cell-based; settings: Lymphocyte, JAK1/JAK3, read-out: IL-21 induced pSTAT3, cellular potency IC50
Method: Human whole blood was collected from healthy donors via vein puncture into Vacutainer collection tubes containing sodium heparin in accordance with Pfizer protocols (Protocol No. GOHW RDP-01) approved by the Shulman Institutional Review Board. Blood was warmed to 37° C. priorto use. Human whole blood was aliquoted (90 μL/well) in 96-well, deep-well, V-bottom plates and treated with compounds (5 μL/well) at different concentrations up to 60 μM (0.2% DMSO final) at 37° C. for 60 minutes. This was followed by a challenge with IFNα (5000 U/mL), IFNγ (100 ng/mL), IL-6 (50 ng/mL), IL-10 (30 ng/mL), IL-12 (30 ng/mL), IL-15 (30 ng/mL), IL-21 (50 ng/mL), IL-23 (25 ng/mL), IL-27 (1000 ng/mL), EPO (2 U/mL), TSLP (50 ng/mL) or PBS and incubated for 15 minutes. Anti-cell surface antibodies were added 15 minutes prior to cytokine stimulation; anti-CD3-BV421 (0.5 μL/well) to IL-6-treated and TSLP-treated samples and anti-CD14-BV421 (0.5 μL/well) to IFNγ-treated samples. Samples were treated with warm 1×Lyse/Fix buffer (700 μL/well) to terminate activation and further incubated at 37° C. for 20 minutes to lyse red blood cells. Plates were centrifuged at 300×g for 5 minutes, supernatant was aspirated, and cells were washed with 800 μL/well of staining buffer (D-PBS containing 0.1% FBS and 0.01% sodium azide). Washed cell pellets were resuspended in 350 μL/well of prechilled 90% methanol and incubated at 4° C. for 30 minutes. After the removal of 90% methanol, cells were washed once with staining buffer. All samples were finally suspended in 150 μL/well of the desired anti-phospho-STAT antibodies at 1:150 dilution in staining buffer; anti-pSTAT1-AF647 in IFNγ treated samples; anti-pSTAT1-AF488 and anti-pSTAT3-AF647 in IL-6-treated samples, anti-pSTAT3-AF647 in IFNα, IL-10, IL-21, IL-23 and IL-27 treated samples, anti-pSTAT4-AF647 in IL-12 treated samples, anti-pSTAT5-AF-647 in EPO, IL-15 and TSLP-treated samples. Human primary keratinocytes were cultured in DermaLife™ medium with supplement kit to expand cell population. Cell passages 2 to 5 were used in the assays. Cells were harvested at ˜80% confluence, suspended in warm DermaLife™ medium, aliquoted (90 μL/well) in 96-well, deep-well, V-bottom plates, and incubated at 37° C. for 30 minutes. Cells were then treated with compounds (0.0003 to 20 μM) for 60 minutes and followed by stimulation with IL-4 (2 ng/mL) or IL-13 (20 ng/mL) at 37° C. for 15 minutes. […]
After overnight incubation at 4° C., anti-pSTAT stained samples were transferred into 96-well polypropylene U-bottom plates and flow cytometric analysis was performed on a LSR Fortessa™ equipped with a HTS plate loader. […] Background fluorescence was defined using unstimulated cells and a gate was placed at the foot of the peak to include ˜0.5% gated population. […]

Sequence of TYK2 (P29597 whole entry): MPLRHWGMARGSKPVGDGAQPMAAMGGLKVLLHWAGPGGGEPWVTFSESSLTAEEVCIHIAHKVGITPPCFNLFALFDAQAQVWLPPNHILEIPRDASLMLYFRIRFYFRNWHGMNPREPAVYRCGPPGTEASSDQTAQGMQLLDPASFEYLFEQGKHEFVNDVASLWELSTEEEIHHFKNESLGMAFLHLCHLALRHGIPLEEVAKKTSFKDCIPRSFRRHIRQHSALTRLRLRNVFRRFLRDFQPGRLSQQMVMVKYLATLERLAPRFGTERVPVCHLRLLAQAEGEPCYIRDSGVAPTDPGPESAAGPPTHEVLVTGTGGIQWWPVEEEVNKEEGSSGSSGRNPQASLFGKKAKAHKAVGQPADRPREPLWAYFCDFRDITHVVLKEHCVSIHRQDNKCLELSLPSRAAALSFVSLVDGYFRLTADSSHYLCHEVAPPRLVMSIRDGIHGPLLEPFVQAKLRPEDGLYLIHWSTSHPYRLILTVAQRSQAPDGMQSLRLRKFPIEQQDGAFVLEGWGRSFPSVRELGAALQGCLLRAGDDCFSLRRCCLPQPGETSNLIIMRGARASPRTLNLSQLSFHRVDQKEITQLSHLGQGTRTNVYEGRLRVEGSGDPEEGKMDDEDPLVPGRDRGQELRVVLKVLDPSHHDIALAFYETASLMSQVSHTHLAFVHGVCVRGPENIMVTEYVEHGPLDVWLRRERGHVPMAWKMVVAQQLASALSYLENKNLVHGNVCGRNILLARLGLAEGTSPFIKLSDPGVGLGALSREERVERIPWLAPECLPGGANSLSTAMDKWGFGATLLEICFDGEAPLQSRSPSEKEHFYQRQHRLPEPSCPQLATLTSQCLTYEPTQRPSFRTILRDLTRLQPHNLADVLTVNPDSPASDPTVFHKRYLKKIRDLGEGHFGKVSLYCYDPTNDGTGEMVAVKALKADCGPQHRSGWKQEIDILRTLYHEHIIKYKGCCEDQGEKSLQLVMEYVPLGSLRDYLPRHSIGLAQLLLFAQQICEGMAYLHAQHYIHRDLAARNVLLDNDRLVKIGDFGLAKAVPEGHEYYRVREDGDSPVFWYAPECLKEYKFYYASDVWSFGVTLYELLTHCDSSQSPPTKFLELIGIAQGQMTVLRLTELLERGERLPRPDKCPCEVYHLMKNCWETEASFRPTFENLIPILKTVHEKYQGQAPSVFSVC

IC50 [1] [µM]	IC50 [2] [nM]	SMILES
1.21	487	C[C@H](O)CS(=O)(=O)N[C@H]1C[C@@H](N(C)c2ncnc3[nH]ccc23)C1 (single isomer, unassigned) [IA (M2)]
3.19	844	CN(c1ncnc2[nH]ccc12)[C@H]1C[C@@H](NS(=O)(=O)CCCO)C1 [IB (M1), 3-Hydroxy-N-(cis-3-(methyl(7H-pyrrolo[2,3-d]pyrimidin-4-yl)amino)cyclobutyl)propane-1-sulfonamide]
3.42	1050	C[C@@H](O)CS(=O)(=O)N[C@H]1C[C@@H](N(C)c2ncnc3[nH]ccc23)C1 (single isomer, unassigned) [IC (M3)]
